From ChEMBL document CHEMBL4732071, “Discovery of selective HDAC/BRD4 dual inhibitors as epigenetic probes” (Eur J Med Chem, 2021)
Active and inactive are the calls of the source. No cut-off for these calls is given here.

Key:
[1] = system: MV4-11; experiment: Antiproliferative activity against human MV4-11 cells assessed as cell viability after 72 hrs by CCK8 assay; assay type: functional, cell-based; conditions: MV4-11, 72 h
[2] = biological target: T1, Bromodomain-containing protein 4 (Homo sapiens, UniProt O60885); experiment: Inhibition of BRD4 in human MV4-11 cells assessed as reduction in c-Myc expression at 10 to 1000 nM measured after 24 hrs by Western blot analysis; assay type: cell-based; conditions: dose 10-1000 nM
[3] = biological target: T2, Protein deacetylase HDAC6 (Homo sapiens, UniProt Q9UBN7); experiment: Inhibition of HDAC6 (unknown origin) by fluorescence based assay
T2 sequence (Q9UBN7 whole entry): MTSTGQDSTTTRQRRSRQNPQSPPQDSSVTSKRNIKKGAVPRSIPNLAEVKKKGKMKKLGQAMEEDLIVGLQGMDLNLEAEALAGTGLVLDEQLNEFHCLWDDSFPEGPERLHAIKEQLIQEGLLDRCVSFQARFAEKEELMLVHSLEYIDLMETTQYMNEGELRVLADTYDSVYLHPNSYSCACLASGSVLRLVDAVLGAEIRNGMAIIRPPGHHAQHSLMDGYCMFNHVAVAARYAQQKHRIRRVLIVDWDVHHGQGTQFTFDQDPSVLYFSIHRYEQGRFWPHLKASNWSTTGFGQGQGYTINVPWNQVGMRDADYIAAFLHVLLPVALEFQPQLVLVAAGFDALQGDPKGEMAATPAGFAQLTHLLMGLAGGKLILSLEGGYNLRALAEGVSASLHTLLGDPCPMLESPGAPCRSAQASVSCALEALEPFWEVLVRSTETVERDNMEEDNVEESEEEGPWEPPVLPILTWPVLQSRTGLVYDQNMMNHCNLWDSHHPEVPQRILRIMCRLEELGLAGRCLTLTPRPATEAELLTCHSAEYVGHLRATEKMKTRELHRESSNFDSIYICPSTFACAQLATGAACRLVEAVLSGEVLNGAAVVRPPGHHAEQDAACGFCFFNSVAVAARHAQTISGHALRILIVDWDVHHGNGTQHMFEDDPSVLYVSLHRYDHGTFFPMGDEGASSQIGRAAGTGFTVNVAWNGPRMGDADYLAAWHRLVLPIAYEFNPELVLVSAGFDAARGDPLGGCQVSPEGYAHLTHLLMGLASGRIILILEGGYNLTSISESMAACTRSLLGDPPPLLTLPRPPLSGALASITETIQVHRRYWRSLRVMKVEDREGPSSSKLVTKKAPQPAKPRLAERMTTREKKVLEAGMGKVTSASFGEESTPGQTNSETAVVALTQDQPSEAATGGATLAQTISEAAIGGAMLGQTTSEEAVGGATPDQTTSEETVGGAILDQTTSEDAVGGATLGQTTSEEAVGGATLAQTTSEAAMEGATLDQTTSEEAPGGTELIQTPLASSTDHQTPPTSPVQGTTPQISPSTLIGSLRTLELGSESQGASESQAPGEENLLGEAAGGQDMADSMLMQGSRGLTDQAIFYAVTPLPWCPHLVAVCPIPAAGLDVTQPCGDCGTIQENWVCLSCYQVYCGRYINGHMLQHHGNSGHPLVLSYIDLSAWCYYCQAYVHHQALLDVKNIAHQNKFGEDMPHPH

[4] = biological target: T1, Bromodomain-containing protein 4; experiment: Inhibition of His-tagged BRD4 bromodomain 1 (unknown origin) using [Lys (5,8,12,16) Ac] H4(1-21) as substrate by fluorescence based assay
[5] = biological target: T1, Bromodomain-containing protein 4; experiment: Inhibition of His-tagged BRD4 bromodomain 2 (unknown origin) using [Lys (5,8,12,16) Ac] H4(1-21) as substrate by fluorescence based assay
[6] = biological target: T3, Histone deacetylase 1 (Homo sapiens, UniProt Q13547); experiment: Inhibition of HDAC1 (unknown origin) by fluorescence based assay
[7] = biological target: T1, Bromodomain-containing protein 4; experiment: Inhibition of BRD4 in human MV4-11 cells assessed as upregulation of p21 expression at 10 to 1000 nM measured after 24 hrs by Western blot analysis; assay type: cell-based; conditions: dose 10-1000 nM
[8] = biological target: T4, Protein deacetylase HDAC6 (Homo sapiens) (UniProt Q9UBN7); experiment: Inhibition of HDAC6 in human MV4-11 cells assessed as increase in acetylated alpha-tubulin at 10 to 1000 nM incubated for 24 hrs by Western blot analysis; assay type: cell-based; conditions: dose 10-1000 nM
T4 sequence (whole entry): T2 sequence (Q9UBN7 whole entry)

[9] = biological target: T3, Histone deacetylase 1; experiment: Inhibition of HDAC1 in human MV4-11 cells assessed as increase in acetylated H3 at 10 to 1000 nM incubated for 24 hrs by Western blot analysis; assay type: cell-based; conditions: dose 10-1000 nM
[10] = biological target: Histone deacetylase 4 (Homo sapiens, UniProt P56524); experiment: Inhibition of HDAC4 (unknown origin) by fluorescence based assay
[11] = system: MV4-11; experiment: Induction of apoptosis in human MV4-11 cells at 1000 nM after 24 hrs by flow cytometry relative to control; assay type: functional
[12] = biological target: T5, Histone deacetylase 8 (Homo sapiens, UniProt Q9BY41); experiment: Inhibition of HDAC8 (unknown origin) by fluorescence based assay
T5 sequence (Q9BY41 whole entry): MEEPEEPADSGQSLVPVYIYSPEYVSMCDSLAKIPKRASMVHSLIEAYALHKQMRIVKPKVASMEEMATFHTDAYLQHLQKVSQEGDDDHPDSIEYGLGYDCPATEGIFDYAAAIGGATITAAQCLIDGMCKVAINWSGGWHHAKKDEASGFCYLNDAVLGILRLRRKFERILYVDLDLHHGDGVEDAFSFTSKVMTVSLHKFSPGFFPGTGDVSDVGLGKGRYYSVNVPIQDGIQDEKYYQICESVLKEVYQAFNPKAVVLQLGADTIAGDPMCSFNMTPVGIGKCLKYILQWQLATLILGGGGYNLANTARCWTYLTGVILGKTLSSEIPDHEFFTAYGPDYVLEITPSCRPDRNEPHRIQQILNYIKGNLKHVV

[13] = biological target: T6, Histone deacetylase 11 (Homo sapiens, UniProt Q96DB2); experiment: Inhibition of HDAC11 (unknown origin) by fluorescence based assay
T6 sequence (Q96DB2 whole entry): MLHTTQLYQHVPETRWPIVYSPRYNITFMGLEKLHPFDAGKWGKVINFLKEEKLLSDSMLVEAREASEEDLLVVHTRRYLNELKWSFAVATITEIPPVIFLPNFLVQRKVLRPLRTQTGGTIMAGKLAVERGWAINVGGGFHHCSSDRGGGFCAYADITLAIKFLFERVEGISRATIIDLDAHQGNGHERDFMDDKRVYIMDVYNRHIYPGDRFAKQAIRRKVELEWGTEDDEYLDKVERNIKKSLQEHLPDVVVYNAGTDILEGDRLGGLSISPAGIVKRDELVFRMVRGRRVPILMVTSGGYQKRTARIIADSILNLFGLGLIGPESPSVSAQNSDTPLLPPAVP

[14] = biological target: Histone deacetylase 3 (Homo sapiens, UniProt O15379); experiment: Inhibition of HDAC3 (unknown origin) by fluorescence based assay
[15] = biological target: T1, Bromodomain-containing protein 4; experiment: Inhibition of BRD4 in human MV4-11 cells assessed as reduction in c-Myc expression measured after 24 hrs by Western blot analysis; assay type: cell-based; conditions: dose 10-1000 nM
[16] = biological target: T3, Histone deacetylase 1; experiment: Inhibition of HDAC1 in human MV4-11 cells assessed as increase in acetylated H3 at 1 uM incubated for 24 hrs by Western blot analysis; assay type: cell-based
[17] = biological target: T4, Protein deacetylase HDAC6 (Homo sapiens); experiment: Inhibition of HDAC6 in human MV4-11 cells assessed as increase in acetylated alpha-tubulin at 1 uM incubated for 24 hrs by Western blot analysis; assay type: cell-based
[18] = system: MV4-11; experiment: Induction of cell cycle arrest in human MV4-11 cells assessed as accumulation at G0/G1 phase at 1000 nM after 24 hrs by flow cytometry; assay type: functional, cell-based

Histone deacetylase 3, sequence (O15379 whole entry): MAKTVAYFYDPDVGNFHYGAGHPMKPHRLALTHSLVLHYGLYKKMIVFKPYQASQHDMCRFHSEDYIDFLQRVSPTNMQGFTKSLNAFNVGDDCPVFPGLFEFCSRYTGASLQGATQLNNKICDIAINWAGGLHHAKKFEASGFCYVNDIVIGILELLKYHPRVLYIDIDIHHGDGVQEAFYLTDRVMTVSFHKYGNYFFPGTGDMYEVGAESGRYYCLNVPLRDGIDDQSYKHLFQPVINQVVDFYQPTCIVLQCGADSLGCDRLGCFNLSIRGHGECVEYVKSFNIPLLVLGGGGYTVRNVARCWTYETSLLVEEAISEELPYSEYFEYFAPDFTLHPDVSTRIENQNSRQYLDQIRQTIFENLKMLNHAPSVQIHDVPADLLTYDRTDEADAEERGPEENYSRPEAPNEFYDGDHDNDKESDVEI
T3 sequence (Q13547 whole entry): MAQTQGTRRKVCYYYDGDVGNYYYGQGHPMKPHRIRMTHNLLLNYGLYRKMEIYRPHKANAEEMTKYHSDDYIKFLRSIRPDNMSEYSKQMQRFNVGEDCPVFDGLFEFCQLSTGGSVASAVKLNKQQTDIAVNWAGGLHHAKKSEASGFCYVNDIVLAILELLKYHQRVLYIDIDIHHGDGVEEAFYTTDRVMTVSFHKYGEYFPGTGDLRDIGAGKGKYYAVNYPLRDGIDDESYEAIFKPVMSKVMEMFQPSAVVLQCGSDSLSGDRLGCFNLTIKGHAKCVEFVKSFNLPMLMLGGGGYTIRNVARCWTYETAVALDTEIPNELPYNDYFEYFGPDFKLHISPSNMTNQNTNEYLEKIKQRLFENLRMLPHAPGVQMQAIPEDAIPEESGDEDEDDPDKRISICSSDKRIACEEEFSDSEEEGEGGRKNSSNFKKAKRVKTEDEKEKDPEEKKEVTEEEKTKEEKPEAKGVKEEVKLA
Histone deacetylase 4, sequence (P56524 whole entry): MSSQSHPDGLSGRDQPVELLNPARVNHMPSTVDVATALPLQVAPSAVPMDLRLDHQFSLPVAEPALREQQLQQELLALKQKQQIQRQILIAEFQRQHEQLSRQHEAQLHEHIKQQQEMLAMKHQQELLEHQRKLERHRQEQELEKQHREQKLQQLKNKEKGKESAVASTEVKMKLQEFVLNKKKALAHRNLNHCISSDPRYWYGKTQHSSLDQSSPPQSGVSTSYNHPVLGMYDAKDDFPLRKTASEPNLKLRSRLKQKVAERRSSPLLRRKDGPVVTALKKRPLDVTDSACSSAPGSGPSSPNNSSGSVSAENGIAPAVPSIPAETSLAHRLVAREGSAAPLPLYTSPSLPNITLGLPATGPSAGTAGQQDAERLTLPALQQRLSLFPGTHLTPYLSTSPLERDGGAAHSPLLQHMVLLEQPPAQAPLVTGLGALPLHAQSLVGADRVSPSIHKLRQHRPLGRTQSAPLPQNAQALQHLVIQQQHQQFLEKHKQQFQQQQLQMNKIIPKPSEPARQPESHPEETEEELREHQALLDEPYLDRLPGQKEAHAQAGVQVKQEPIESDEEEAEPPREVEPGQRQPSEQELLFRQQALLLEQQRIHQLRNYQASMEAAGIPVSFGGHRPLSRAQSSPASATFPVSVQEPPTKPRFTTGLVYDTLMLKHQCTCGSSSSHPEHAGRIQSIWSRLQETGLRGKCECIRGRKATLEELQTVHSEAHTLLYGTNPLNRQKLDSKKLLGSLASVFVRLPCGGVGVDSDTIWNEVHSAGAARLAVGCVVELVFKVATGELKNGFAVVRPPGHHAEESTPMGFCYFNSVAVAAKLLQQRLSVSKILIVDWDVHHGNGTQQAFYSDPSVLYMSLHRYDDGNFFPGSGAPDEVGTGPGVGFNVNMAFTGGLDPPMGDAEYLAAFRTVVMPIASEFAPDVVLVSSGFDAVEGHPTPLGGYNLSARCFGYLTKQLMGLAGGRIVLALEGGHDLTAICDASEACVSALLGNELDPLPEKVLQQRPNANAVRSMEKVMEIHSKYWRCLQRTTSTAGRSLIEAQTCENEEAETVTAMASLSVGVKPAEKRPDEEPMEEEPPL

Compound | IC50 [1] | inhibition [2] | IC50 [3] | IC50 [4] | IC50 [5] | IC50 [6] | inhibition [7] | Acetylated alpha-tubulin increase (active/not active) [8] | inhibition [9] | IC50 [10] | Activity [11] | IC50 [12] | IC50 [13] | IC50 [14] | inhibition [15] | inhibition [16] | inhibition [17] | Activity [18]
Cn1cc(-c2ccccc2Oc2ccccc2)c2cc(C(=O)NCCCCCC(=O)NO)[nH]c2c1=O | 610 nM | Active | 3.4 nM | 21.4 nM | 3.8 nM | 44.4 nM |  |  |  |  |  |  |  |  |  |  |  | 
Cn1cc(-c2ccccc2Oc2ccccc2)c2cc(C(=O)NCc3ccc(C(=O)Nc4ccccc4N)cc3)[nH]c2c1=O | 80 nM | Active | > 500 nM | 31.7 nM | 18.7 nM | 126 nM | Active | inactive | Active |  |  |  |  |  |  |  |  | 
CC(C)Oc1ccc(C(C)(C)O)cc1-c1cn(C)c(=O)c2[nH]c(C(=O)NCc3ccc(C(=O)Nc4ccccc4N)cc3)cc12 | 40 nM |  |  | 5.6 nM | 2.1 nM | 59.7 nM |  |  | Active | > 10000 nM | 57.31% | > 10000 nM | > 10000 nM | 1440 nM | Active |  |  | 
CC(C)Oc1ccc(C(C)(C)O)cc1-c1cn(C)c(=O)c2[nH]c(C(=O)NCCCCCCC(=O)NO)cc12 | 160 nM |  | 5.4 nM | 29.5 nM | 6 nM | 19.4 nM |  | Active | Active | > 10000 nM | 53.73% | 99.6 nM | > 10000 nM | 36.4 nM | Active |  |  | 
Cn1cc(-c2cc(C(C)(C)O)ccc2OC2CC2)c2cc(C(=O)NCc3ccc(C(=O)NO)cc3)[nH]c2c1=O | 420 nM |  | 7.9 nM | 252 nM | 6.9 nM | 20.8 nM |  |  |  |  |  |  |  |  |  |  |  | 
Cn1cc(-c2ccccc2Oc2ccccc2)c2cc(C(=O)NCCCCCCC(=O)NO)[nH]c2c1=O | 180 nM | Active | 4.7 nM | 38.6 nM | 5.3 nM | 29.5 nM |  |  |  |  |  |  |  |  |  | Active | Active | 
Cn1cc(-c2cc(C(C)(C)O)ccc2Oc2ccc(F)cc2F)c2cc(C(=O)NCc3ccc(C(=O)NO)cc3)[nH]c2c1=O | 190 nM |  | 15.6 nM | 76.7 nM | 12.4 nM | 74 nM |  |  |  |  |  |  |  |  |  |  |  | 
Cn1cc(-c2cc(C(C)(C)O)ccc2OC2CC2)c2cc(C(=O)NCCCCCCC(=O)NO)[nH]c2c1=O | 220 nM |  | 5.5 nM | 26.2 nM | 5.8 nM | 29.8 nM |  |  |  |  |  |  |  |  |  |  |  | 
Cc1cc(F)cc(C)c1Oc1ccc(C(C)(C)O)cc1-c1cn(C)c(=O)c2[nH]c(C(=O)NCCCCCCC(=O)NO)cc12 | 300 nM |  | 17.2 nM | 369 nM | 1.2 nM | 228 nM |  | Active |  | > 10000 nM | 19.29% | 583 nM | 2750 nM | 161 nM | Active |  |  | Active
Cn1cc(-c2ccccc2Oc2ccccc2)c2cc(C(=O)NCCCCC(=O)NO)[nH]c2c1=O | 180 nM | Active | 4 nM | 13.1 nM | 4.8 nM | 142 nM |  | inactive |  |  |  |  |  |  |  |  |  | 
Cc1cc(F)cc(C)c1Oc1ccc(C(C)(C)O)cc1-c1cn(C)c(=O)c2[nH]c(C(=O)NCc3ccc(C(=O)NO)cc3)cc12 | 440 nM |  | 39.3 nM | 305 nM | 1.5 nM | 293 nM |  |  |  |  |  |  |  |  |  |  |  | 
Cn1cc(-c2ccccc2Oc2ccccc2)c2cc(C(=O)NCCCCCC(=O)Nc3ccccc3N)[nH]c2c1=O | 70 nM |  | > 500 nM | 583 nM | 8.4 nM | 176 nM |  |  |  |  |  |  |  |  |  |  |  | 
Cn1cc(-c2ccccc2Oc2ccccc2)c2cc(C(=O)NCc3ccc(C(=O)NO)cc3)[nH]c2c1=O | 570 nM | Active | 15.3 nM | 42.1 nM | 11.3 nM | 168 nM |  | Active | inactive |  |  |  |  |  |  |  |  | 
